Values of other authors as cited in publication PMC10783161 (RSC Advances, 2024).

Details: biphasic elimination, slower terminal phase

For `COc1cc([C@@H]2c3cc4c(cc3[C@@H](O[C@@H]3O[C@@H]5CO[C@@H](C)O[C@H]5[C@H](O)[C@H]3O)[C@H]3COC(=O)[C@H]23)OCO4)cc(OC)c1O` [ETP, etoposide], the terminal phase half-life is listed as 4 to 11 h.
